Results published in patent publication US20130157973A1, “PHARMACEUTICAL COMPOSITIONS AND METHODS FOR TREATING GASTROINTESTINAL INFECTIONS AND DISORDERS” (priority 2011, published 2013).
Like-named read-outs stand apart in the source and are kept apart here.

Legend:
[1] = Phase IIa studies in chronic HCV subjects: safety, neutrophil and lymphocyte counts, liver enzymes; format: in vivo, human; conditions: for proportion of subjects with AST elevations / proportion of subjects with ALT elevations: French study, 0.02 mg/kg group
Method: Single center study (France): 6 subjects received 0.01 mg/kg, 11 received 0.02 mg/kg and 6 received placebo.
Exclusion criteria included clinically meaningful cirrhosis on prior liver biopsy (U.S. study), positive serology for possible autoimmune hepatitis (ANA˜1:640, ASMA>1:320, ALKM antibody>1:320), hepatocellular neoplasia, anemia (<12 g/dL for men, <11 for women), thrombocytopenia (<90,000/μL), leukopenia (<2500 cells/μL), neutropenia (<1500 cells/μL, U.S. study), ALT>1000 U/L (French study) or aspartate aminotransferase (AST) or ALT>500 U/L (U.S. study), bilirubin>1 mg/dL, decompensated liver disease, other liver diseases, positive serology for HIV, positive HBsAg, prior organ transplantation, significant psychiatric disease, alcohol or drug abuse within 12 months, systemic immunomodulatory or investigational therapy within 3 months, and significant cardiac, pulmonary, systemic inflammatory or thyroid disease.
In the U.S. study, subjects were assigned centrally across centers. Active to placebo assignment was 3:1 for each cohort. Sample sizes were not prospectively powered.
All subjects were to receive study drug two times per week for 4 weeks. Subjects self-administered study drug at home except on study visits with pharmacokinetic and pharmacodynamic sampling where it was administered in the clinic. […] In the U.S. study, subjects received 0.01 mg/kg of resiquimod.
(§1) Serum IL-6, IL-1RA, TNF-α and IFN-γ were measured by enzyme-linked immunosorbent assay (Immunotech, Cedex, France) and neopterin by immunoenzymatic assay (Immunotech, Cedex, France). Serum type I IFN levels were determined by bioassay. Serum 2′,5′ oligoadenylate synthetase (2′5′ AS) was measured by radioimmunoassay (Eiken Chemical Co. Ltd., Tokyo, Japan). Serum IL-12 p40 was measured by enzyme-linked immunosorbent assay (R&D Systems, Minneapolis, Minn.) Immunophenotyping of T lymphocytes in the U.S. study was performed at NGI.

[2] = Single-dose pharmacokinetics of Compound B, fasted and fed cohorts; format: in vivo, human; conditions: for Cmax / AUC(0-inf) / half-life / Tmax: human, plasma, oral; for Cmax: read-out: Cmax Mean (% CV); for AUC(0-inf): read-out: AUCinf Mean (% CV); for Tmax: read-out: Tmax Median (Q1, Q3)
Method: Table 1 and Table 2 present the PK parameters of Compound B following the administration of a single dose of Compound B in the fasted cohorts and fed cohorts, respectively. Mean maximal plasma concentration values (Cmax) were higher with increasing dose in the fasted treatment groups. Mean maximal plasma concentration values were lower when Compound B (8 mg) was administered with moderate- or high-fat meal or following a high fat-meal than when Compound B was administered under fasting conditions.

IFN-α = assay: Phase IIa studies: serum type I IFN levels by bioassay; format: in vivo, human
Method: as §1, with “Samples for cytokines were obtained at 0, 2, 4, 6, 8, 12 and 24 h after the first dose, prior to dosing at days 8, 15, 22 or 25 (see above regarding pharmacokinetics) and day 29. Serum IL-6,” for “Serum IL-6,”

[3] = Placebo-controlled single and multiple administration tolerability studies in healthy adults; format: in vivo; conditions: single administration study in 48 healthy adults, up to 0.05 mg/kg
serum HCV RNA = assay: Phase IIa studies: serum HCV RNA by quantitative polymerase chain reaction; format: in vivo, hepatitis C virus
Method: Two randomized, double-blind phase IIa studies of Compound B administered two times per week for 4 weeks. Multicenter study (U.S.): 12 subjects received Compound B 0.01 mg/kg and 4 received placebo. Single center study (France): 6 subjects received 0.01 mg/kg, 11 received 0.02 mg/kg and 6 received placebo.
Serum HCV RNA was measured by quantitative polymerase chain reaction (NGI). Subjects were categorized as responders (reduction from baseline of ˜2 logs) or non-responders at the end-of-treatment visit (day 29), and at the last follow-up visit (day 113 U.S. study, and day 57 French study).

[4] = 0.3 mg, single dose 0.3 mg, Cohort 1, fasted
[5] = 1 mg, single dose 1 mg, Cohort 2, fasted
[6] = 2 mg, single dose 2 mg, Cohort 3, fasted
[7] = 4 mg, single dose 4 mg, Cohort 4, fasted
[8] = 6 mg, single dose 6 mg, Cohort 5, fasted
[9] = 8 mg, single dose 8 mg post high-fat meal (4 hours), Cohort 9
[10] = 8 mg, single dose 8 mg with a high-fat meal, IFE Cohort
[11] = 8 mg, single dose 8 mg with a moderate-fat meal, Cohort 8
[12] = 8 mg, single dose 8 mg, Cohort 6, fasted
[13] = 12 mg, single dose 12 mg, Cohort 7, fasted
[14] = of the 11 subjects with at least a 1-log reduction at any time

CCCCOc1nc(N)c2c(n1)N(Cc1cccc(CN3CCCC3)c1)CC(=O)N2 [Compound B, 4-amino-2-butoxy-8-(3-(pyrrolidin-1-ylmethyl)benzyl)-7,8-dihydropteridin-6(5H)-one]
proportion of subjects with AST elevations ([1]; day 1 (6/11)): 55% | proportion of subjects with ALT elevations ([1]; day 1 (9/11)): 82% | proportion of subjects with AST elevations ([1]; day 29 (1/9)): 11% | proportion of subjects with ALT elevations ([1]; day 29 (5/9)): 56% | ALT and AST levels ([1]; U.S. study, 0.01 mg/kg): Neither ALT nor AST levels appeared to be affected | changes in physical examinations ([1]; both studies): no clinically meaningful changes | Clinically relevant changes in CD4+ lymphocyte counts or CD4+/CD8+ lymphocyte ratios ([1]; human, in vivo): not observed | adverse effects ([1]; oral 0.02 mg/kg): adverse effects similar to interferon-alpha | Mean maximal plasma concentration fed vs fasting ([2]; 8 mg with moderate- or high-fat meal or following a high-fat meal, vs fasting conditions): lower | Cmax [2, 4]: 0.184 ng/mL | AUC(0-inf) ([2]; 0.3 mg, single dose 0.3 mg, Cohort 1, fasted, limited terminal phase data, interpret with caution): 2.97 ng·h/mL | half-life ([2]; 0.3 mg, single dose 0.3 mg, Cohort 1, fasted, plasma measured only to 24 hours, interpret with caution, read-out: T½ Median (Q1, Q3) (converted)): 10.4 h | Tmax [2, 4]: 3 h | Cmax [2, 5]: 0.44 ng/mL | AUC(0-inf) [2, 5]: 9.23 ng·h/mL | Tmax [2, 5]: 3 h | half-life ([2]; 1 mg, single dose 1 mg, Cohort 2, fasted, read-out: T½ Median (Q1, Q3) (converted)): 26.9 h | Cmax [2, 6]: 0.633 ng/mL | AUC(0-inf) [2, 6]: 11.3 ng·h/mL | Tmax [2, 6]: 6 h | half-life ([2]; 2 mg, single dose 2 mg, Cohort 3, fasted, read-out: T½ Median (Q1, Q3) (converted)): 24.3 h | Cmax [2, 7]: 2.93 ng/mL | AUC(0-inf) [2, 7]: 57.2 ng·h/mL | Tmax [2, 7]: 4 h | half-life ([2]; 4 mg, single dose 4 mg, Cohort 4, fasted, read-out: T½ Median (Q1, Q3) (converted)): 17.2 h | Cmax [2, 8]: 7.26 ng/mL | AUC(0-inf) [2, 8]: 76.9 ng·h/mL | Tmax [2, 8]: 2.5 h | half-life ([2]; 6 mg, single dose 6 mg, Cohort 5, fasted, read-out: T½ Median (Q1, Q3) (converted)): 14.7 h | AUC(0-inf) [2, 9]: 79.5 ng·h/mL | Cmax [2, 9]: 4.53 ng/mL | Tmax [2, 9]: 5 h | half-life ([2]; 8 mg, single dose 8 mg post high-fat meal (4 hours), Cohort 9, read-out: T½ Median (Q1, Q3) (converted)): 20.5 h | AUC(0-inf) [2, 10]: 71.4 ng·h/mL | Cmax [2, 10]: 5.24 ng/mL | Tmax [2, 10]: 3 h | half-life ([2]; 8 mg, single dose 8 mg with a high-fat meal, IFE Cohort, read-out: T½ Median (Q1, Q3) (converted)): 23.6 h | AUC(0-inf) [2, 11]: 51.1 ng·h/mL | Cmax [2, 11]: 2.04 ng/mL | Tmax [2, 11]: 2 h | half-life ([2]; 8 mg, single dose 8 mg with a moderate-fat meal, Cohort 8, read-out: T½ Median (Q1, Q3) (converted)): 21.6 h | Cmax [2, 12]: 8.34 ng/mL | AUC(0-inf) [2, 12]: 109 ng·h/mL | Tmax [2, 12]: 2.51 h | half-life ([2]; 8 mg, single dose 8 mg, Cohort 6, fasted, read-out: T½ Median (Q1, Q3) (converted)): 19.5 h | Cmax [2, 13]: 12 ng/mL | AUC(0-inf) [2, 13]: 140 ng·h/mL | Tmax [2, 13]: 1.51 h | half-life ([2]; 12 mg, single dose 12 mg, Cohort 7, fasted, read-out: T½ Median (Q1, Q3) (converted)): 16.3 h | half-life ([2]; all groups except the 0.3-mg group, read-out: Median terminal half-life values across groups): 14.7 to 26.9 h | IFN-α Rmax post-dose 1 of individual subject (IFN-α; 0.02 mg/kg subject who discontinued treatment for severe grade flu-like symptoms): 3946 IU/mL | IFN-α Rmax post-dose 1 of individual subject (IFN-α; 0.02 mg/kg subject who discontinued treatment for severe grade lymphopenia): 15,557 IU/mL | maximum tolerated oral dose [3]: 0.03 mg/kg | subjects with at least a 1-log reduction in HCV levels at any time during the study (serum HCV RNA; 0.01 mg/kg group): five | subjects with at least a 1-log reduction in HCV levels at any time during the study (serum HCV RNA; 0.02 mg/kg group): six | subjects with maximal reduction in viral levels of at least 1-log (serum HCV RNA; 0.02 mg/kg group): Two | subjects with maximal reduction in viral levels of at least 2-logs (serum HCV RNA; 0.02 mg/kg group): three | subjects with maximal reduction in viral levels of at least 3-logs (serum HCV RNA; 0.02 mg/kg group): one | responders per protocol (2 log reduction) at end-of-treatment visit (serum HCV RNA; 0.02 mg/kg, day 29, not sustained on follow-up): one | subjects whose HCV Rmax occurred at day 29 or after (serum HCV RNA; [14]): 5 subjects | subjects whose HCV Rmax occurred within 48 h after dose 1 (serum HCV RNA; [14]): 6 subjects | effect on viral levels (serum HCV RNA; oral 0.02 mg/kg): transiently reduced viral levels | serum HCV RNA levels after the first dose (serum HCV RNA; peaking at about 24 h, trending toward baseline by 48 h): dose-dependent decrease
